Measured values published in US9695155B2, “Herbicidal substituted pyrimidinyloxy benzene compounds” (E. I. DU PONT DE NEMOURS AND COMPANY, priority 2013, dated 2017).

Experiments:
giant foxtail = test: Test A preemergence; format: in vivo, Setaria faberii; conditions: for Plant response rating, Foxtail, Giant / Foxtail, Giant plant response rating: 0 to 100 scale where 0 is no effect and 100 is complete control; for Foxtail, Giant plant response rating: 500 g ai/ha
Outline: (§1)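 Greenhouse pot test, loam/sand soil. Formulation: non-phytotoxic solvent mix plus surfactant. Pre: directed spray onto soil after sowing. Post: plants at 1–2 leaf, 2–10 cm. Rated visually vs untreated controls at ~10 d, 0 (no effect) to 100 (complete control).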

large (Lg) crabgrass = test: Test A preemergence; format: in vivo, Digitaria sanguinalis; conditions: for Crabgrass, Large plant response rating: 500 g ai/ha
Outline: as §1

morningglory [1] = test: Test A preemergence; format: in vivo, Ipomoea spp.; conditions: for Morningglory plant response rating (0 to 100 scale): 125 g ai/ha; for Morningglory plant response rating: 500 g ai/ha, 0 to 100 scale where 0 is no effect and 100 is complete control
Outline: as §1

velvetleaf = test: Test A preemergence; format: in vivo, Abutilon theophrasti; conditions: for Velvetleaf plant response rating (0 to 100 scale): 125 g ai/ha; for Velvetleaf plant response rating: 500 g ai/ha, 0 to 100 scale where 0 is no effect and 100 is complete control
Outline: as §1

morningglory [2] = test: Test A postemergence; format: in vivo, Ipomoea spp.
Outline: as §1

[3] = 125 g ai/ha, 0 to 100 scale where 0 is no effect and 100 is complete control
[4] = 0 to 100 scale where 0 is no effect and 100 is complete control
[5] = 500 g ai/ha, 0 to 100 scale where 0 is no effect and 100 is complete control

Row | Structure (SMILES) | Plant response rating, Foxtail, Giant (giant foxtail; 125 g ai/ha) | Foxtail, Giant plant response rating (giant foxtail) | Plant response rating, Crabgrass, Large (large (Lg) crabgrass; [3]) | Crabgrass, Large plant response rating (large (Lg) crabgrass; [4]) | Morningglory plant response rating (0 to 100 scale) (morningglory [1]) | Morningglory plant response rating (morningglory [1]) | Velvetleaf plant response rating (0 to 100 scale) (velvetleaf) | Velvetleaf plant response rating (velvetleaf) | Morningglory plant response rating (morningglory [2]; [3]) | Plant response rating, Morningglory (morningglory [2]; [5]) | Crabgrass, Large plant response rating (0 to 100 scale) (large (Lg) crabgrass; 125 g ai/ha) | Foxtail, Giant plant response rating (0 to 100 scale) (giant foxtail; 125 g ai/ha) | Plant response rating, Morningglory (morningglory [2]; 125 g ai/ha, 0 to 100 scale, 0 no effect, 100 complete control)
1 | N#Cc1cnn(-c2c(C#N)cccc2Oc2ncc(Br)cn2)c1 [Compound 135] | 70 | 100 |  |  |  |  |  |  |  |  |  |  | 
2 | FC(F)c1cccc(Oc2ncc(Cl)cn2)c1-n1cc(C(F)(F)F)cn1 [Compound 170] | 100 | 90 | 100 | 100 | 20 | 90 | 80 | 100 | 60 | 90 |  |  | 
3 | NC(=S)c1cccc(Oc2ncc(Cl)cn2)c1-n1cc(Cl)cn1 [Compound 292] |  | 100 |  | 100 | 30 | 90 | 30 | 100 |  | 100 | 100 | 100 | 90
